Measured values from ChEMBL document CHEMBL1201862, “PubChem BioAssay data set” (2004).
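Results reflect a 48-hour exposure of cells in 96-well plates to compound at five concentrations. Here, GI50 denotes the concentration required for 50% inhibition of growth.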 Calls of active or inactive are those of the source. No stated cut-off is given here; in the data, active = GI50 up to about 1.1 µM and inactive = higher.

How the values were obtained:
Assay in all cases: NCI tumour cell line growth inhibition, 48 h
786-0 = system: 786-0
CAKI-1 = system: CAKI-1
HOP-92 = system: HOP-92
IGROV-1 = system: IGROV-1
KM-20L2 = system: KM-20L2
LXFL 529 = system: LXFL 529
MOLT-4 = system: MOLT-4
NCI-H460 = system: NCI-H460
SF-295 = system: SF-295
SK-OV-3 = system: SK-OV-3
SN12C = system: SN12C
SNB-19 = system: SNB-19
SNB-78 = system: SNB-78
SR = system: SR
XF498 = system: XF498
DU-145 = system: DU-145
MDA-MB-231 = system: MDA-MB-231
RPMI-8226 = system: RPMI-8226
SNB-75 = system: SNB-75
T47D = system: T47D

## CCOC(=O)[N-]c1ccc(S(=O)(=O)[O+](C)CCl)cc1.CCOC(=O)[N-]c1ccc(S(=O)(=O)[O+](C)CCl)cc1.NC(=O)N=O.NC(=O)OCCCl
786-0
  GI50: > 100 µM (inactive)
CAKI-1
  GI50: > 100 µM (inactive)
HOP-92
  GI50: > 100 µM (inactive)
IGROV-1
  GI50: > 100 µM (inactive)
KM-20L2
  GI50: > 100 µM (inactive)
LXFL 529
  GI50: > 100 µM (inactive)
MOLT-4
  GI50: > 100 µM (inactive)
NCI-H460
  GI50: > 100 µM (inactive)
SF-295
  GI50: > 100 µM (inactive)
SK-OV-3
  GI50: > 100 µM (inactive)
SN12C
  GI50: > 100 µM (inactive)
SNB-19
  GI50: > 100 µM (inactive)
SNB-78
  GI50: > 100 µM (inactive)
SR
  GI50: > 100 µM (inactive)
XF498
  GI50: > 100 µM (inactive)

## Nc1ncnc2c1ncn2C1C=C(CO)C(O)C1O (stereo not drawn)
786-0
  GI50: 4.17 µM (inactive)
CAKI-1
  GI50: 13.1 µM (inactive)
DU-145
  GI50: 5.69 µM (inactive)
HOP-92
  GI50: 7.55 µM (inactive)
IGROV-1
  GI50: 7.74 µM (inactive)
KM-20L2
  GI50: 14.7 µM (inactive)
LXFL 529
  GI50: 16.7 µM (inactive)
MDA-MB-231
  GI50: 2.19 µM (inactive)
MOLT-4
  GI50: 0.249 µM (active)
NCI-H460
  GI50: 0.637 µM (active)
RPMI-8226
  GI50: 0.256 µM (active)
SF-295
  GI50: 24.5 µM (inactive)
SK-OV-3
  GI50: 8.18 µM (inactive)
SN12C
  GI50: 7.03 µM (inactive)
SNB-19
  GI50: 16 µM (inactive)
SNB-75
  GI50: 7.55 µM (inactive)
SNB-78
  GI50: 30.9 µM (inactive)
SR
  GI50: 0.0254 µM (active)
T47D
  GI50: 1.64 µM (inactive)
XF498
  GI50: 37.2 µM (inactive)

## Cc1cc(O)c(C(=O)CC2(O)C(=O)Nc3c(Cl)cc(Cl)cc32)c(=O)o1 (stereo not drawn)
786-0
  GI50: > 100 µM (inactive)
CAKI-1
  GI50: > 100 µM (inactive)
HOP-92
  GI50: > 100 µM (inactive)
IGROV-1
  GI50: > 100 µM (inactive)
KM-20L2
  GI50: > 100 µM (inactive)
LXFL 529
  GI50: > 100 µM (inactive)
MOLT-4
  GI50: > 100 µM (inactive)
NCI-H460
  GI50: > 100 µM (inactive)
RPMI-8226
  GI50: 55.5 µM (inactive)
SF-295
  GI50: > 100 µM (inactive)
SK-OV-3
  GI50: > 100 µM (inactive)
SN12C
  GI50: > 100 µM (inactive)
SNB-19
  GI50: > 100 µM (inactive)
SNB-75
  GI50: 26.6 µM (inactive)
SNB-78
  GI50: > 100 µM (inactive)
SR
  GI50: > 100 µM (inactive)
XF498
  GI50: > 100 µM (inactive)

## O=C(c1ccco1)c1ccccc1C(=O)c1ccco1
786-0
  GI50: > 100 µM (inactive)
CAKI-1
  GI50: > 100 µM (inactive)
HOP-92
  GI50: > 100 µM (inactive)
IGROV-1
  GI50: > 100 µM (inactive)
KM-20L2
  GI50: > 100 µM (inactive)
LXFL 529
  GI50: > 100 µM (inactive)
MOLT-4
  GI50: > 100 µM (inactive)
NCI-H460
  GI50: > 100 µM (inactive)
SF-295
  GI50: > 100 µM (inactive)
SN12C
  GI50: > 100 µM (inactive)
SNB-19
  GI50: > 100 µM (inactive)
SNB-75
  GI50: > 100 µM (inactive)
SNB-78
  GI50: > 100 µM (inactive)
SR
  GI50: > 100 µM (inactive)
XF498
  GI50: > 100 µM (inactive)

## Cc1nc(O)nc2c1C(NCCCN(C)C)c1cc(Cl)ccc1N2 (stereo not drawn)
786-0
  GI50: 14.6 µM (inactive)
HOP-92
  GI50: 10.9 µM (inactive)
IGROV-1
  GI50: 16.2 µM (inactive)
KM-20L2
  GI50: 12 µM (inactive)
LXFL 529
  GI50: 16.9 µM (inactive)
MOLT-4
  GI50: 19.8 µM (inactive)
NCI-H460
  GI50: 14.7 µM (inactive)
RPMI-8226
  GI50: 17.3 µM (inactive)
SF-295
  GI50: 16.6 µM (inactive)
SK-OV-3
  GI50: 16.9 µM (inactive)
SN12C
  GI50: 14.8 µM (inactive)
SNB-19
  GI50: 16.4 µM (inactive)
SNB-75
  GI50: 12.8 µM (inactive)
SNB-78
  GI50: 15.3 µM (inactive)
SR
  GI50: 4.81 µM (inactive)
XF498
  GI50: 16.6 µM (inactive)

## CC1=C(C(=O)NCc2ccccc2)C(c2ccc(N(C)C)cc2)C(C(=O)NCc2ccccc2)=C(C)N1
786-0
  GI50: > 100 µM (inactive)
CAKI-1
  GI50: > 100 µM (inactive)
HOP-92
  GI50: > 100 µM (inactive)
IGROV-1
  GI50: > 100 µM (inactive)
KM-20L2
  GI50: > 100 µM (inactive)
LXFL 529
  GI50: > 100 µM (inactive)
MOLT-4
  GI50: > 100 µM (inactive)
NCI-H460
  GI50: > 100 µM (inactive)
RPMI-8226
  GI50: > 100 µM (inactive)
SF-295
  GI50: > 100 µM (inactive)
SK-OV-3
  GI50: > 100 µM (inactive)
SN12C
  GI50: > 100 µM (inactive)
SNB-19
  GI50: > 100 µM (inactive)
SNB-75
  GI50: 29.3 µM (inactive)
SNB-78
  GI50: > 100 µM (inactive)
XF498
  GI50: > 100 µM (inactive)

## Cc1ccc(NC(=O)C2C(=O)N(c3ccc(C)c(C)c3)C(=O)/C2=N\NC(N)=O)cc1C (stereo not drawn)
786-0
  GI50: > 100 µM (inactive)
CAKI-1
  GI50: > 100 µM (inactive)
HOP-92
  GI50: 63.5 µM (inactive)
IGROV-1
  GI50: 89.5 µM (inactive)
KM-20L2
  GI50: > 100 µM (inactive)
LXFL 529
  GI50: 59.7 µM (inactive)
MOLT-4
  GI50: 88.9 µM (inactive)
NCI-H460
  GI50: > 100 µM (inactive)
RPMI-8226
  GI50: 69.2 µM (inactive)
SF-295
  GI50: 86.9 µM (inactive)
SK-OV-3
  GI50: > 100 µM (inactive)
SN12C
  GI50: 77.3 µM (inactive)
SNB-19
  GI50: > 100 µM (inactive)
SNB-75
  GI50: > 100 µM (inactive)
SNB-78
  GI50: > 100 µM (inactive)
XF498
  GI50: > 100 µM (inactive)

## CC(=O)c1ccc(NC(=O)/C(=N\NC(N)=O)C(C#N)CC(C)(C)C=O)cc1 (stereo not drawn)
CAKI-1
  GI50: > 100 µM (inactive)
HOP-92
  GI50: > 100 µM (inactive)
IGROV-1
  GI50: > 100 µM (inactive)
KM-20L2
  GI50: > 100 µM (inactive)
LXFL 529
  GI50: > 100 µM (inactive)
MOLT-4
  GI50: > 100 µM (inactive)
NCI-H460
  GI50: > 100 µM (inactive)
RPMI-8226
  GI50: > 100 µM (inactive)
SF-295
  GI50: > 100 µM (inactive)
SK-OV-3
  GI50: > 100 µM (inactive)
SN12C
  GI50: > 100 µM (inactive)
SNB-19
  GI50: > 100 µM (inactive)
SNB-75
  GI50: > 100 µM (inactive)
SNB-78
  GI50: > 100 µM (inactive)
SR
  GI50: > 100 µM (inactive)
XF498
  GI50: > 100 µM (inactive)

## CC(C)(C)c1nc2c(o1)/C(=N\c1ccc(F)cc1)c1ccccc1C2=O
786-0
  GI50: 27.2 µM (inactive)
CAKI-1
  GI50: 50.9 µM (inactive)
DU-145
  GI50: 10.4 µM (inactive)
HOP-92
  GI50: > 72.3 µM (inactive)
IGROV-1
  GI50: 14.9 µM (inactive)
KM-20L2
  GI50: 17.1 µM (inactive)
LXFL 529
  GI50: 4.4 µM (inactive)
MDA-MB-231
  GI50: 30.2 µM (inactive)
MOLT-4
  GI50: > 100 µM (inactive)
NCI-H460
  GI50: 5.74 µM (inactive)
RPMI-8226
  GI50: 26.9 µM (inactive)
SF-295
  GI50: 6.1 µM (inactive)
SK-OV-3
  GI50: 22.1 µM (inactive)
SN12C
  GI50: 5.69 µM (inactive)
SNB-19
  GI50: 8.24 µM (inactive)
SNB-75
  GI50: 6.79 µM (inactive)
SNB-78
  GI50: 56 µM (inactive)
SR
  GI50: > 43.5 µM (inactive)
T47D
  GI50: > 49.3 µM (inactive)
XF498
  GI50: 1.71 µM (inactive)

## O=C(CC1(O)C(=O)Nc2ccccc21)c1ccc2ccccc2c1 (stereo not drawn)
786-0
  GI50: > 100 µM (inactive)
CAKI-1
  GI50: > 100 µM (inactive)
HOP-92
  GI50: > 100 µM (inactive)
IGROV-1
  GI50: > 100 µM (inactive)
KM-20L2
  GI50: > 100 µM (inactive)
LXFL 529
  GI50: > 100 µM (inactive)
MOLT-4
  GI50: > 100 µM (inactive)
NCI-H460
  GI50: > 100 µM (inactive)
RPMI-8226
  GI50: > 100 µM (inactive)
SF-295
  GI50: > 100 µM (inactive)
SK-OV-3
  GI50: > 100 µM (inactive)
SN12C
  GI50: > 100 µM (inactive)
SNB-19
  GI50: > 100 µM (inactive)
SNB-75
  GI50: 78 µM (inactive)
SNB-78
  GI50: > 100 µM (inactive)
XF498
  GI50: 93.8 µM (inactive)

## O=C1c2ccccc2C2(O)NC(=S)N(c3ccccc3)C12O (stereo not drawn)
786-0
  GI50: > 100 µM (inactive)
CAKI-1
  GI50: > 100 µM (inactive)
HOP-92
  GI50: > 100 µM (inactive)
IGROV-1
  GI50: > 100 µM (inactive)
KM-20L2
  GI50: > 100 µM (inactive)
LXFL 529
  GI50: > 100 µM (inactive)
MOLT-4
  GI50: > 100 µM (inactive)
NCI-H460
  GI50: > 100 µM (inactive)
RPMI-8226
  GI50: > 100 µM (inactive)
SF-295
  GI50: > 100 µM (inactive)
SK-OV-3
  GI50: > 100 µM (inactive)
SNB-19
  GI50: > 100 µM (inactive)
SNB-75
  GI50: > 100 µM (inactive)
SNB-78
  GI50: > 100 µM (inactive)
SR
  GI50: > 100 µM (inactive)
XF498
  GI50: > 100 µM (inactive)
